Entries after “also recorded” stand apart in the source; their conditions may differ.
Key:
HOIP RBR domain [1] = target: T1, HOIP RBR domain (Homo sapiens, UniProt Q96EP0); assay: Protein LC-MS compound screening of analogs; type: binding; conditions: 2 μM protein, 0.5, 4, 24 h; for labeling of HOIP RBR domain relative to hit (5): 20 μM compound (10-fold excess)
T1 construct: made in house; host or cells: E. coli BL21-GOLD(DE3)
T1 sequence (Q96EP0 697-1072): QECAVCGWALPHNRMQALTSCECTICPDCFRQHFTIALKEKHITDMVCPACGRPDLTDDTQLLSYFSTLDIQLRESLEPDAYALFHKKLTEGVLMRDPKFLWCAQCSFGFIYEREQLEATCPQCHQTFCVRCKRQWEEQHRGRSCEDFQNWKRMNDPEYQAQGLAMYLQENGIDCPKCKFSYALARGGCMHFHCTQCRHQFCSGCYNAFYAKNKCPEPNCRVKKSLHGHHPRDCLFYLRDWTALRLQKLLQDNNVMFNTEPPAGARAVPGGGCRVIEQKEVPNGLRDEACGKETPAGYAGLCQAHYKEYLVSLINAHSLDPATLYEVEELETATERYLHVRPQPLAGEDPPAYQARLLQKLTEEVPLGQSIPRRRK
Procedure: of (1) and 3 mM stock solution of (5) in DMSO, giving a final concentration of 6 and 30 µM respectively, and 1% DMSO).
The UbcH5c and UbcH7 E2 enzymes were diluted with buffer to afford new stock solutions at 10 µM, of which 25 µL was used for each sample (final concentration 5 µM, 85-91 µg/mL), together with 24.5 µL buffer and 0.5 µL compound solution (1 mM stock solution of (1) and 5 mM stock solution of (5) in DMSO, giving a final concentration of 10 and 50 µM respectively, and 1% DMSO).
The E1 enzyme was diluted with buffer to afford a new stock solution at 2 µM, of which 25 µL was used for each sample (final concentration 1 µM, 120 µg/mL), together with 24.5 µL buffer and 0.5 µL compound solution (200 µM stock solution of (1) and 1 mM stock solution of (5) in DMSO, giving a final concentration of 2 and 10 µM respectively, and 1% DMSO).
Protocol as described above, using the HOIP RBR (stock solutions around 300 µM) in buffer (50 mM HEPES, 150 mM NaCl, pH 7.5) to afford a new stock solution at 4 µM of which 25 µL was used for each sample (final concentration 2 µM, 87 µg/mL), together with 24.5 µL buffer and 0.5 µL compound solution (2 mM stock solutions in DMSO, giving a final concentration of 20 µM, and 1% DMSO). The samples were analyzed after 0.5, 4, and 24 h incubation.
Supplementary Figure S7. TIC traces of deconvoluted protein masses from the screening of analogues to hit compound (5). The HOIP RBR (2 µM; MW = 43398 g/mol) was incubated with […]
compound (17) and aliquots were analyzed after 0.5, 4, and 24 h incubation. The data was used for the generation of the heat map in Figure 5A.
(1 picture or pasted object on this page, not shown here)

[2] = test system: NF-κB activation in HEK293T cells overexpressing full length HOIP, HOIL-1L, and SHARPIN; assay: NF-κB Luciferase reporter assay; type: cell-based; conditions: overnight (17 h) treatment
Procedure: suspensions were agitated at 4 °C overnight. The supernatants were removed and kept on ice, and the beads were washed with wash buffer (2 × 0.5 mL), PBS (2 × 0.5 mL), and 50 mM HEPES, 150 mM NaCl, pH 7.5 buffer (2 × 0.5 mL).
A polyubiquitination assay master mix was prepared by mixing E1, UbcH7, ubiquitin, MgCl2, in buffer (50 mM HEPES, 150 mM NaCl, pH 7.5). The solution (30 µL per sample) was added to the beads, and lastly ATP (0.6 µL of 100 mM stock) was added to initiate the reaction. Final concentrations were E1 (0.2 µM), UbcH7 E2 (1 µM), ubiquitin (10 µM), MgCl2 (4 mM), ATP (2 mM). The vials were incubated (Eppendorf Thermomixer) at 25 °C, 900 rpm for 1.5 h. […] All samples were analyzed by SDS PAGE and Western Blot (Figure 6C and Supplementary Figure S13) as described in sections 4.5 and 4.6. […]
(§1) Reporter assays: After incubating the plates for 17 h, Firefly and Renilla Luciferase activity was analyzed using the Dual-Luciferase® Reporter Assay System (Promega) and a BertholdTech […]
(§2) with Mikrowin 2000 software version 4.41: using its injectors to inject 100 µL LAR II and 100 µL Stop&Glo (see manufacturer’s instructions; Promega #E1960). NF-κB regulated luciferase activity was first normalized to Renilla luciferase activity and then the fold activation relative to cells transfected with empty vector calculated. […]
reader. […]

[3] = test system: HEK293T cells overexpressing full-length HOIP, HOIL-1L, and SHARPIN; assay: CellTiter-Glo Luminescent cell viability assay, transfected cells; type: cell-based; conditions: 17 h
Procedure: Thurston, Imperial College London. 2.3 × 10^6 cells were seeded into 100 mm Petri dishes in DMEM media supplemented with 10% v/v FBS (Biosera) and 1% v/v L-glutamine/penicillin/streptomycin (Sigma-Aldrich) and incubated at 37 °C overnight. The following morning the cells were transfected using either 6 µg pcDNA3 or 4.5 µg HOIP, 0.3 µg HOIL-1L and 1.2 µg SHARPIN as well as 450 ng pRDII Luc and 180 ng pRLTK (Promega) plasmids. 7 h after transfection, the cells were trypsinized and re-suspended in DMEM media supplemented with 1% v/v FBS (Biosera) and 1% v/v L-glutamine/penicillin/streptomycin (Sigma-Aldrich). […]
as §1, §2
Cell viability assays: After incubating the plates for 17 h in the presence of compound, cell viability was determined using the CellTiter-Glo® Luminescent Cell Viability Assay according to manufacturer’s instructions (Promega #G7571). […]

HOIP RBR domain [4] = target: T1, HOIP RBR domain; assay: In vitro polyubiquitination assay; type: biochemical; conditions: HOIP RBR preincubated with compound (200 μM) overnight; E2 UbcH7 or UbcH5c; vs DMSO
Procedure: 4.3 Polyubiquitination assay
The ubiquitination assay was essentially carried out as previously described.12 The HOIP RBR domain was pre-incubated with compounds (5) or (6), or DMSO in 50 mM HEPES, 150 mM NaCl, pH 7.5 buffer at 23 °C with gentle shaking for overnight (20-24 h). E1, E2 (UbcH7 or UbcH5c), ubiquitin, and MgCl2 were added to each vial, and aliquots of 15 µL were withdrawn to mark time zero. ATP was then added and aliquots of 15 µL were withdrawn after 5, 15, 30, and 60 min incubation. Final concentrations: E1 (1 µM), E2 (5 µM), E3 (5 µM), compounds (200 µM), DMSO (1%), ubiquitin (40 µM), MgCl2 (20 mM), ATP (10 mM); reaction volume 100 µL. The aliquots were analyzed by SDS PAGE (Figure 4A and Supplementary Figure S9) as described below (section

| SMILES | labeling of HOIP RBR domain relative to hit (5) (HOIP RBR domain [1]) | also measured |
| --- | --- | --- |
| COC(=O)/C=C/CCNC(=O)c1cc2c([nH]c1=O)CCC2 [Compound 9] | significantly lower activity | – |
| COC(=O)CCCNC(=O)c1cc2c([nH]c1=O)CCCC2 [Compound 17] | – | effect on NF-κB activity [2]: no effect on NF-κB activity; effect on cell viability [3]: neither compound had any effect on cell viability; labeling of HOIP RBR domain (HOIP RBR domain [1]; 200 μM compound): abolished activity |
| COC(=O)/C=C/CNC(C)=O [Compound 10] | significantly lower activity | – |
| COC(=O)CCCNC(=O)c1cc2c([nH]c1=O)CCC2 [Compound 6] | abolished activity | polyubiquitin chain formation (HOIP RBR domain [4]): no inhibitory effect; also recorded: no effect on catalytic activity |
| COC(=O)/C=C/CNC(=O)c1ccc(-c2ccccc2)[nH]c1=O [Compound 11i] | inactive | – |

Source: article PMC6383986, “Fragment-Based Covalent Ligand Screening Enables Rapid Discovery of Inhibitors for the RBR E3 Ubiquitin Ligase HOIP” (Journal of the American Chemical Society, 2019)
